Assay results as given in US10624910B2, “Thrombin-like enzyme for reducing a side effect of an anticancer drug” (priority 2007, dated 2020).
Marks after values point to notes of the source that are not given here.

Key:
Type in all cases: in vivo
[1] = system: male C57BL/6 mice; assay: Reducing effect of batroxobin on lethal toxicity caused by adriamycin; details: ADM 3 mg/kg i.p. (+ batroxobin 30 BU/kg i.p.) once every other day, 18 times; 41th day after first dose
Source text: (§1) The thrombin-like enzyme, batroxobin (hereinafter referred to as DF-521) was used, which is manufactured by Beijing Tobishi Pharmaceutical Co., Ltd. (Beijing, China) with a trade name of Dong Ling Di Fu.
The anticancer drug, adriamycin (hereinafter referred to as ADM) was used, which is manufactured by Hualian Pharmaceutical Factory of Shanghai Pharmaceutical (Group) Co., Ltd.
The laboratory animals, male C57BL/6 mice (weight: 19-22 g) were divided into three groups: control group, adriamycin group (ADM group), and adriamycin+batroxobin group (ADM+DF-521 group), with 10 mice in each group. The control group was administered with physiological saline.
The adriamycin group was given an intraperitoneal dose (3 mg/kg) of adriamycin once every other day. The adriamycin+batroxobin group was given a simultaneous dosage of 3 mg/kg of adriamycin and 30 BU/kg of batroxobin intraperitoneally, once every other day. The drug administration was performed in total of 18 times. The experiment was terminated on the 41th day after the first dose administered. The number of deaths was totaled, and the survival rate was calculated from mortality rate.

[2] = system: C57BL/6 Mice; assay: Reducing effect of batroxobin on bone marrow suppression caused by adriamycin; details: ADM 3 mg/kg i.p. (+ batroxobin 30 BU/kg i.p.) once every other day; after 9th administration
Source text: as §1
The anticancer drug, adriamycin (hereinafter referred to as ADM) was used, which is manufactured by Hualian Pharmaceutical Factory of Shanghai Pharmaceutical Group Co., Ltd.
The laboratory animals, C57BL/6 Mice (weight: 19-22 g) were divided into three groups: control group, adriamycin group (ADM group), and adriamycin+batroxobin (ADM+DF-521 group), with 5-10 mice (n=5 or 10) in one group. The control group was given physiological saline once every other day. The adriamycin group was given an intraperitoneal dose of 3 mg/kg of adriamycin once every other day. The adriamycin+batroxobin group was given an intraperitoneal doses of 3 mg/kg of adriamycin and 30 BU/kg of batroxobin simultaneously, once every other day. After the 9th administration, the experiment was terminated, and the blood was collected from the femoral artery under ether anesthesia using the EDTA anticoagulant. Then, the WBC, RBC counts and Hb value were measured.
Furthermore, the bone marrow nuclear cell (BMNC) count per femur of a mouse was measured with the following procedure. The bone marrow was sampled from 2 femora of a mouse, bone marrow was flushed with the 2 ml physiological saline, and made the bone marrow cell suspension. Twenty of marrow cell suspension was put into 380 μl of 3% acetic acid solution. After the red blood cells were destroyed, the hemocytometer was used for counting the BMNC count under the microscope. Then the BMNC count per femur was calculated.
The above-mentioned BMNC, RBC, WBC counts and Hb value were used as an evaluation index for bone marrow suppression caused by adriamycin.

[3] = system: C57BL/6 male mice inoculated with B16-BL6 murine malignant melanoma cells; assay: Reducing effect of batroxobin on cardiotoxicity caused by adriamycin (H&E histopathology of left ventricular myocardial tissue); details: batroxobin 20 BU/kg i.p. once a day and/or adriamycin 3 mg/kg i.p. once interval of 2 days; after 20 days
Source text: as §1
The anticancer drug, adriamycin (hereinafter referred to as ADM) was used, which is manufactured by Shenzhen Main Luck Pharmaceuticals Inc.
The laboratory animals, C57BL/6 male mice (weight: 16-18 g) were divided into 4 groups: 10 mice in the control group, 7 mice in the batroxobin group, 7 mice in the adriamycin group, and 7 mice in the adriamycin+batroxobin group. Mice from each group were inoculated with a dorsal right lateral subcutaneous injection of 3×10^6 B16-BL6 murine malignant melanoma cells in 0.3 ml of tumor cell suspension. After one day of tumor cell inoculation, the control group was given an intraperitoneal injuction of physiological saline once a day; the batroxobin group was given an intraperitoneal injection of batroxobin (20 BU/kg) once a day; the adriamycin group was given an intraperitoneal injection of adriamycin (3 mg/kg) once interval of 2 days; the adriamycin+batroxobin group was given an intraperitoneal injection of adriamycin (3 mg/kg) once interval of 2 days and an intraperitoneal injection of 20 BU/kg batroxobin once a day after administration of adriamycin. […]

[4] = system: male C57BL/6 mice; assay: Reducing effect of batroxobin on bone marrow suppression caused by cyclophosphamide; details: CPA 100 mg/kg i.p. (+ batroxobin 30 BU/kg i.p.) once every other day; after fourth administration (7 days)
Source text: as §1
The anticancer chug, cyclophosphamide (hereinafter referred to as CPA) was used, which is manufactured by Shanxi Powerdone Pharmaceutical Co., Ltd.
The laboratory animals, male C57BL/6 mice (weight: […] were divided into three groups: control group, cyclophosphamide group (CPA group), and cyclophosphamide+batroxobin group (CPA+DF-521 group), with five mice in one group. The control group was given physiological saline once every other day. The cyclophosphamide group was given an intraperitoneal dose of 100 mg/kg of cyclophosphamide once every other day. The cyclophosphamide+batroxobin group was given an intraperitoneal dose of 100 mg/kg of cyclophosphamide and 30 BU/kg of batroxobin simultaneously, once every other day. After the fourth administration (7 days after the first administration), blood was collected from the femoral artery under ether anesthesia using the EDTA anticoagulant, and the white blood cell count (WBC), red blood cell count (RBC), hemoglobin value (Hb), and platelet count (Plt) was measured.
The bone marrow nuclear cell count (BMNC) per femur of a mouse was measured by the following procedure. Bone marrow was sampled from 2 femora of a mouse, the marrow was flushed with 2 ml of physiological saline, and made the bone marrow cell suspension. Twenty μl of bone marrow cell suspension was put into […] of 3% acetic acid solution. After the red blood cells were destroyed, the hemocytometer was used for counting the BMNC count under the microscope. Then the BMNC count per femur was calculated.
The above-mentioned BMNC, WBC, RBC, Plt counts and Hb value are used as an evaluation index for bone marrow suppression caused by cyclophosphamide.

[5] = system: male C57BL/6 mice; assay: Reducing effect of batroxobin on bone marrow suppression caused by cisplatin; details: DDP 0.8 mg/kg i.p. (+ batroxobin 30 BU/kg i.p.) once every other day; after 17th administration (33rd day)
Source text: as §1
The anticancer drug, cisplatin (hereinafter referred to as DDP) was used, which is manufactured by Yunnan Gejiu Biochemical Pharmaceutical Co., Ltd.
The laboratory animals, male C57BL/6 Mice (weight: 20-22 g) were divided into 3 groups: control group, cisplatin group (DDP group), and cisplatin+batroxobin group (DDP+DF-521 group); with 10 mice in one group. The control group was given physiological saline once every other day. The cisplatin group was given an intraperitoneal dose of 0.8 mg/kg of cisplatin once every other day. The cisplatin+batroxobin group was given an intraperitoneal dose of 0.8 mg/kg of cisplatin and 30 BU/kg of batroxobin simultaneously, once every other day. After the 17th administration (33rd day after the first administration), the experiment was terminated, blood was collected from the femoral artery under ether anesthesia using the anticoagulant EDTA, and the WBC, RBC, Plt counts and Hb value, were measured.
Furthermore the bone marrow nuclear cell (BMNC) count per femur of a mouse was measured by the following procedure. Bone marrow was sampled from 2 femora of a mouse, the bone marrow was flushed with the 2 ml physiological saline, and made bone marrow cell suspension. Twenty μl of marrow cell suspension was put into 380 μl of 3% acetic acid solution. After the red blood cells were destroyed, the hemocytometer was used for counting the BMNC count under the microscope. Then, the BMNC count per femur was calculated.
The above-mentioned BMNC, WBC, RBC, Plt counts and Hb value were used as an evaluation index for bone marrow suppression caused by cisplatin.

[6] = system: Rat (Wistar); assay: Acute toxicity of batroxobin (i.v.), rat
Procedure: (§2) The thrombin-like enzyme, batroxobin is used in the present agent. The acute toxicity (LD50 (BU/kg)) of batroxobin on mice, rats, rabbits and dogs is as follows in Table 1. The acute toxicity test was assessed by the intravenous administration of batroxobin.

[7] = system: Mouse (ddy); assay: Acute toxicity of batroxobin (i.v.), mouse
Procedure: as §2

[8] = system: Rabbit (NW); assay: Acute toxicity of batroxobin (i.v.), rabbit
Procedure: as §2

[9] = system: Dog (mongrel); assay: Acute toxicity of batroxobin (i.v.), dog
Procedure: as §2

Molecule: COc1cccc2c1C(=O)c1c(O)c3c(c(O)c1C2=O)C[C@@](O)(C(=O)CO)C[C@@H]3O[C@H]1C[C@H](N)[C@H](O)[C@H](C)O1 [ADM, adriamycin]
- Survival No/Total No [1]: 4/10*
- survival rate % [1]: (40%)
- BMNC [2]: 6.9 ± 1.6 ×10^6/bone
- Hb [2]: 94.9 ± 30.5 g/L
- RBC [2]: 6.6 ± 1.5 ×10^12/L
- WBC [2]: 3.4 ± 0.7 ×10^9/L
- Pathological findings in left ventricular myocardial tissue (H&E) compared to control group [3]: abnormalities were observed

Molecule: O=P1(N(CCCl)CCCl)NCCCO1 (stereo not shown) [CPA, cyclophosphamide]
- BMNC [4]: 2.4 ± 0.4 ×10^6/bone
- Hb [4]: 98.8 ± 9.2 g/L
- Plt [4]: 1081.6 ± 47.4 ×10^9/L
- RBC [4]: 6.2 ± 0.5 ×10^12/L
- WBC [4]: 0.8 ± 0.3 ×10^9/L

Molecule: N.N.[Cl][Pt][Cl] [DDP, cisplatin]
- BMNC [5]: 11.3 ± 2.6 ×10^6/bone
- Hb [5]: 121.6 ± 10.7 g/L
- Plt [5]: 1059.2 ± 241.5 ×10^9/L
- RBC [5]: 7.4 ± 0.8 ×10^12/L
- WBC [5]: 6.1 ± 2.2 ×10^9/L

Molecule: batroxobin
- LD50 Value [6]: 105~110 BU/kg
- LD50 Value [7]: 192~210 BU/kg
- Pathological findings in left ventricular myocardial tissue (H&E) compared to control group [3]: abnormalities were not observed
- LD50 Value [8]: >300 BU/kg
- LD50 Value [9]: 190~208 BU/kg
